From patent publication US11957931B2, “Compositions and methods for treating vitiligo” (YALE UNIVERSITY, priority 2017, dated 2024)
Where two headings read alike, the source gives them in different places. Marks after values point to notes of the source that are not given here.

Experiments:
[1] = tested on: melanocyte-specific T cells (HLA pentamer positive); conditions: Patient 1; after treatment vs baseline
Protocol: Cells were blocked with Human TruStain and incubated with an antibody cocktail for 30 minutes at 4° C. Anti-human CD45 (2D1) and CD8 (SK1) were used at 1:20 dilution. Anti-human CD3 (OKT3) was used at 1:200 dilution (BioLegend) and Fixable Viability Dye eFluor 455UV at 1:1000 (Ebioscience).

patients with vitiligo [2] = test: Retrospective case series of vitiligo patients treated with tofacitinib: BSA of depigmentation / repigmentation; assay type: in vivo, human; design: key to Responder Status: R, responder; NR, non-responder
Text: (§3) This study is a retrospective case series of 10 patients seen between July 2014 and January 2017. […] Clinical and demographic information, including biological sex, age, disease duration and course, medical history, family history, and prior treatments were collected. Before initiating tofacitinib, all patients underwent baseline laboratory evaluation including comprehensive metabolic panel, complete blood cell count with differential, fasting lipid panel, QuantiFERON-TB Gold® ([…] Limited, Melbourne, Australia), and screening for HIV and hepatitis B and C. Body surface area (BSA) of depigmentation was assessed prior to and at the end of treatment. Serial laboratory monitoring, physical exams, and review of systems were used to monitor for adverse events.

CXCL9 = CXCL9 ELISA of blister fluid and serum; assay type: in vivo, human; conditions: Patient 1; following treatment
Protocol: (§1) The Negative Pressure Instrument Model NP-4 (Electronic Diversities®, Finksburg, MD) was used to induce suction blisters (1 cm in diameter). Blisters formed at a pressure between […] negative pressure and at a constant temperature of 40° C. Once blisters formed, the blister fluid was aspirated […] through the roof using a 1 mL insulin syringe. Cells in the blister fluid were pelleted at 330×g for 10 minutes and prepared for flow cytometry. The supernatant of the blister fluid was stored at −80° C. until analysis by enzyme-linked immunosorbent-assays (ELISA) for chemokines. None of the blisters were hemorrhagic.
(§2) Chemokines were assayed using the Human CXLC9/MIG DuoSet ELISA (DY392) and Human CXCL10/IP-10 DuoSet ELISA (DY266, R&D Systems) per the manufacturer's instructions. Optical densities were measured using a Perkin Elmer EnVision 2102® multilabel reader and analyzed using a 4 parameter […] standard curve.

CXCL10 = CXCL10 ELISA of blister fluid and serum; assay type: in vivo, human; conditions: Patient 1; following treatment
Protocol: as §1, §2

CD8^+ T cells = test: Suction blister sampling, flow cytometry of CD8+ T cells in blister fluid; assay type: in vivo, human; conditions: Patient 1; after 10 months of tofacitinib vs baseline; responding, non-responding and non-lesional sites
Protocol: The Negative Pressure Instrument Model NP-4 (Electronic Diversities®, Finksburg, MD) was used to induce suction blisters (1 cm in diameter). Blisters formed at a pressure between 10-15 mm Hg negative pressure and at a constant temperature of 40° C. Once blisters formed, the blister fluid was aspirated 135 through the roof using a 1 mL insulin syringe. Cells in the blister fluid were pelleted at 330×g for 10 minutes and prepared for flow cytometry. […] Cells were blocked with Human TruStain and incubated with an antibody cocktail for 30 minutes at 4° C. Anti-human CD45 (2D1) and CD8 (SK1) were used at 1:20 dilution. Anti-human CD3 (OKT3) was used at 1:200 dilution (BioLegend) and Fixable Viability Dye eFluor 455UV at 1:1000 (Ebioscience).

patients with vitiligo [3] = test: Adverse event monitoring in the case series (laboratory monitoring, physical exams, review of systems); assay type: in vivo, human
Text: as §3

patients with vitiligo [4] = tested on: patients with vitiligo
[5] = Patient 1, earlier course, 5 mg daily, over 5 months
[6] = Patient 2, 5 mg twice daily, after 8 months
[7] = Patient 3, 5 mg twice daily plus nbUVB 150 mJ every other day, after 11 months
[8] = Patient 4, after 14 months of therapy
[9] = Case 1, 5 mg twice daily plus full-body narrowband UV-B (400-500 mJ) twice weekly, after 3 months
[10] = Cases 1 and 2, at last follow-up

C[C@@H]1CCN(C(=O)CC#N)C[C@@H]1N(C)c1ncnc2[nH]ccc12 [tofacitinib, 3-((3R,4R)-4-methyl-3-(methyl(7H-pyrrolo[2,3-d]pyrimidin-4-yl)amino)piperidin-1-yl)-3-oxopropanenitrile]
percentage of melanocyte-specific T cells (HLA pentamer positive) in PBMCs [1]: did not change with tofacitinib treatment, and even increased slightly
Responder Status (patients with vitiligo [2]; Patient 1): R
repigmentation at other body sites, including the trunk (patients with vitiligo [2]; [5]): only minimal repigmentation
repigmentation of face, forearms and dorsal hands (patients with vitiligo [2]; [5]): near complete repigmentation
repigmentation on re-treatment (patients with vitiligo [2]; Patient 1, 5 mg daily over 6 months, started in late spring): repigmentation of the face, forearms and dorsal hands, and the upper back and shoulders, but not the lower back or other sun-protected body sites
BSA after to tofacitinib (patients with vitiligo [2]; Patient 1, BSA prior to tofacitinib 10%, treatment duration 10 months): 4%
course after stopping tofacitinib (patients with vitiligo [2]; Patient 1, tofacitinib stopped for 8 months, areas that had previously responded): depigmentation recurred
Responder Status (patients with vitiligo [2]; Patient 2): R
repigmentation of dorsal hands and lower legs (patients with vitiligo [2]; [6]): islands of repigmentation
repigmentation of face, neck (not submental area) and forearms (patients with vitiligo [2]; [6]): near-complete repigmentation
sun-protected body sites (patients with vitiligo [2]; [6]): remained unchanged
repigmentation of face, lateral and posterior neck, and forearms (patients with vitiligo [2]; Patient 2, 5 mg twice daily, over 3 months, sun exposure): partial repigmentation
BSA after to tofacitinib (patients with vitiligo [2]; Patient 2, BSA prior to tofacitinib 28%, treatment duration 8 months): 24%
maintenance of repigmentation (patients with vitiligo [2]; Patient 2, while taking tofacitinib during the winter, minimal sunlight exposure): Repigmentation was maintained
Responder Status (patients with vitiligo [2]; Patient 3): R
repigmentation of all other body sites (patients with vitiligo [2]; [7]): innumerable islands of repigmentation
repigmentation of the back (patients with vitiligo [2]; [7]): > 75%
repigmentation of the face (patients with vitiligo [2]; [7]): complete repigmentation
BSA after to tofacitinib (patients with vitiligo [2]; Patient 3, BSA prior to tofacitinib 39%, treatment duration 11 months, concomitant nbUVB): 24%
Responder Status (patients with vitiligo [2]; Patient 4): R
BSA after to tofacitinib (patients with vitiligo [2]; Patient 4, BSA prior to tofacitinib 10%, treatment duration 14 months): 8%
repigmentation of hands and sun-protected body sites (patients with vitiligo [2]; [8]): neither the hands nor sun-protected body sites, however, showed evidence of repigmentation
repigmentation of the face (patients with vitiligo [2]; [8]): near-complete repigmentation
Responder Status (patients with vitiligo [2]; Patient 5): R
response of vitiligo to tofacitinib alone (patients with vitiligo [2]; Patient 5, 5-10 mg twice daily for 1 year, before nbUVB, hands disguised with makeup): unresponsive
BSA after to tofacitinib (patients with vitiligo [2]; Patient 5, BSA prior to tofacitinib 2%, treatment duration 10 months, islands of repigmentation after 12 nbUVB treatments did not change BSA appreciably): 2%*
repigmentation after adding nbUVB hand phototherapy (patients with vitiligo [2]; Patient 5, concomitant nbUVB, approximately 12 treatments (most recent dose 350 mJ)): islands of repigmentation were apparent
Responder Status (patients with vitiligo [2]; Patient 6): NR
BSA after to tofacitinib (patients with vitiligo [2]; Patient 6, BSA prior to tofacitinib 7%, treatment duration 3 months): 7%
Responder Status (patients with vitiligo [2]; Patient 7): NR
BSA after to tofacitinib (patients with vitiligo [2]; Patient 7, BSA prior to tofacitinib 1%, treatment duration 9 months): 1%
Responder Status (patients with vitiligo [2]; Patient 8): NR
BSA after to tofacitinib (patients with vitiligo [2]; Patient 8, BSA prior to tofacitinib 4%, treatment duration 15 months): 4%
Responder Status (patients with vitiligo [2]; Patient 9): NR
BSA after to tofacitinib (patients with vitiligo [2]; Patient 9, BSA prior to tofacitinib 6%, treatment duration 4 months): 6%
Responder Status (patients with vitiligo [2]; Patient 10): NR
BSA after to tofacitinib (patients with vitiligo [2]; Patient 10, BSA prior to tofacitinib 100%, treatment duration 11 months): 100%
mean decrease of BSA involvement with vitiligo (patients with vitiligo [2]; in 5/10 patients, tofacitinib 5-10 mg QD-BID, average 9.5 months): 5.4 % BSA
overall finding: repigmentation and light exposure (patients with vitiligo [2]; sunlight or nbUVB phototherapy): only led to repigmentation when there was concomitant light exposure
repigmentation (patients with vitiligo [2]; the other 5 of 10 patients, tofacitinib 5-10 mg QD-BID): did not achieve any repigmentation
CXCL9 level in blister fluid (CXCL9): undetectable
CXCL9 level in serum (CXCL9): undetectable
CXCL10 level in blister fluid (CXCL10): undetectable
CXCL10 level in serum (CXCL10): undetectable
CD8+ T cell number in blister fluid (CD8^+ T cells): absolute numbers in each site were reduced
serious adverse events (patients with vitiligo [3]; 10 patients): no serious adverse events
adverse events overall (patients with vitiligo [3]; in vivo): mild and infrequent
arthralgias (patients with vitiligo [3]; of 10 patients): one patient reported arthralgias
mild elevations of lipids (patients with vitiligo [3]; of 10 patients): 4 patients
upper respiratory infection (most common side effect) (patients with vitiligo [3]; of 10 patients): 2 patients
weight gain (patients with vitiligo [3]; reported by one patient of 10): 5 pounds
repigmentation of neck, chest, forearms and shins (patients with vitiligo [4]; [9]): ≥ 75%
repigmentation of the dorsal hands (patients with vitiligo [4]; [9]): only minimal freckling
repigmentation of the face (patients with vitiligo [4]; [9]): nearly complete repigmentation
repigmentation of the face (patients with vitiligo [4]; Case 2, 5 mg twice daily plus narrowband UV-B (360-500 mJ) 2 to 3 times weekly to only the face, after 3 months): about 50%
facial repigmentation (patients with vitiligo [4]; Case 2, 5 mg twice daily plus narrowband UV-B (360-500 mJ) 2 to 3 times weekly to only the face, after 6 months): about 75%
repigmentation at the other body sites (no UV-B) (patients with vitiligo [4]; Case 2, 5 mg twice daily, narrowband UV-B to only the face): No repigmentation occurred
adverse effects (patients with vitiligo [4]; [10]): no adverse effects
complete blood cell count, liver function tests, serum creatinine, fasting lipids (patients with vitiligo [4]; [10]): no abnormalities
